The record followed here is US9718817B2, “Aryl and heteroaryl ether compounds as ROR gamma modulators” (Glenmark Pharmaceuticals S.A., priority 2014, dated 2017).

The target of this assay is T1, GST-tagged ROR gamma ligand binding domain (LBD) (Homo sapiens, UniProt P51449).
T1 construct: purchased Invitrogen
T1 sequence (P51449 269-508 limits assumed): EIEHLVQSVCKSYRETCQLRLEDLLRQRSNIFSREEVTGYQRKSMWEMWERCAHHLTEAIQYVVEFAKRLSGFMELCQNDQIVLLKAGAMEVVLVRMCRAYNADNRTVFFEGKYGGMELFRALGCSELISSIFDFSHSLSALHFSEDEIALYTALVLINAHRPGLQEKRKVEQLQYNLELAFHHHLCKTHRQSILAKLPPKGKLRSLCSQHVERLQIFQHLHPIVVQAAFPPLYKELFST
Put plainly: TR-FRET assay for ROR gamma (LanthaScreen co-activator peptide recruitment). The format is biochemical. The conditions noted are these: for IC50: class symbols, from dose response curve; for inhibition at 1 µM: compound 1 μM; for inhibition at 1 µM / inhibition at 10 µM: TR-FRET ratio 520/495, percent of control; for inhibition at 10 µM: compound 10 μM. The procedure, abridged:
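Antagonist mode: 10 nM GST-RORγ LBD pre-incubated with compound 1 h at 22 °C in 25 mM HEPES pH 7.4, 100 mM NaCl, 5 mM DTT, 0.01% BSA, 4% DMSO final. Then 300 nM fluorescein-D22 co-activator peptide plus 10 nM Tb-anti-GST added, 1 h at room temperature. IC50 by nonlinear regression of the 520/495 TR-FRET ratio as percent of no-compound control.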
For orientation: TR-FRET usually uses a lanthanide donor and a delayed reading to cut background.

As a reminder, the IC50 is the concentration that inhibits the measured activity by half. As usually defined, the inhibition is how much of the control response was suppressed.

Turning to `CCn1c(C(C)(C)Oc2ccc(F)cc2F)nc2cc(NC(=O)Cc3ccc(S(=O)(=O)CC)cc3)ccc21` [Example 88, N-{2-[1-(2,4-Difluoro-phenoxy)-1-methyl-ethyl]-1-ethyl-1H-benzoimidazol-5-yl}-2-(4-ethanesulfonyl-phenyl)-acetamide], the IC50 is under 50 nM, the inhibition at 1 µM came out at 86.2% and the inhibition at 10 µM was 96.1%.

For `CCn1c(C(C)(C)Oc2ccc(F)c(F)c2)nc2cc(NC(=O)Cc3ccc(S(=O)(=O)CC)cc3)ccc21` [Example 89, N-{2-[1-(3,4-Difluoro-phenoxy)-1-methyl-ethyl]-1-ethyl-1H-benzoimidazol-5-yl}-2-(4-ethanesulfonyl-phenyl)-acetamide], the IC50 was under 50 nM, the inhibition at 1 µM came out at 86.5% and the inhibition at 10 µM amounted to 95.5%.

Consider `CCn1c(C(C)(C)Oc2c(F)cc(F)cc2F)nc2cc(NC(=O)Cc3ccc(S(=O)(=O)CC)cc3)ccc21` [Example 90, 2-(4-Ethanesulfonyl-phenyl)-N-{1-ethyl-2-[1-methyl-1-(2,4,6-trifluoro-phenoxy)-ethyl]-1H-benzoimidazol-5-yl}-acetamide], for which the IC50 is under 50 nM, the inhibition at 1 µM is 87.3% and the inhibition at 10 µM amounted to 88.8%.

Regarding `CCn1c(C(C)(C)Oc2ccc(F)c(F)c2F)nc2cc(NC(=O)Cc3ccc(S(=O)(=O)CC)cc3)ccc21` [Example 91, 2-(4-Ethanesulfonyl-phenyl)-N-{1-ethyl-2-[1-methyl-1-(2,3,4-trifluoro-phenoxy)-ethyl]-1H-benzoimidazol-5-yl}-acetamide], the IC50 was under 50 nM, the inhibition at 1 µM was 90% and the inhibition at 10 µM turned out to be 90.6%.

Take `CCn1c(C(C)(C)Oc2cc(F)c(F)cc2F)nc2cc(NC(=O)Cc3ccc(S(=O)(=O)CC)cc3)ccc21` [Example 92, 2-(4-Ethanesulfonyl-phenyl)-N-{1-ethyl-2-[1-methyl-1-(2,4,5-trifluoro-phenoxy)-ethyl]-1H-benzoimidazol-5-yl}-acetamide]: the IC50 was under 50 nM, the inhibition at 1 µM worked out at 91.5% and the inhibition at 10 µM stood at 93.1%.

Consider `CCn1c(C(C)(C)Oc2ccc(Cl)cc2)nc2cc(NC(=O)Cc3ccc(S(=O)(=O)CC)cc3)ccc21` [Example 93, N-{2-[1-(4-Chloro-phenoxy)-1-methyl-ethyl]-1-ethyl-1H-benzoimidazol-5-yl}-2-(4-ethanesulfonyl-phenyl)-acetamide], for which the IC50 was under 50 nM, the inhibition at 1 µM came to 83.4% and the inhibition at 10 µM stood at 87.4%.

`CCn1c(C(C)(C)Oc2ccc(Cl)cn2)nc2cc(NC(=O)Cc3ccc(S(=O)(=O)CC)cc3)ccc21` [Example 94, N-{2-[1-(5-Chloro-pyridin-2-yloxy)-1-methyl-ethyl]-1-ethyl-1H-benzoimidazol-5-yl}-2-(4-ethanesulfonyl-phenyl)-acetamide]: the IC50 was over 100 nM, the inhibition at 1 µM was 78% and the inhibition at 10 µM was determined as 90.1%.

As for `CCS(=O)(=O)c1ccc(CC(=O)Nc2ccc(OC(C)(C)c3ncc(Cl)cc3Cl)c(F)c2)cc1` [Example 95, N-{4-[1-(3,5-Dichloro-pyridin-2-yl)-1-methyl-ethoxy]-3-fluoro-phenyl}-2-(4-ethanesulfonyl-phenyl)-acetamide], the IC50 is under 50 nM, the inhibition at 1 µM was 75.7% and the inhibition at 10 µM turned out to be 77.6%.

Consider `CCS(=O)(=O)c1ccc(CC(=O)Nc2ccc(OC(C)(C)c3ccc(Cl)cc3Cl)c(F)c2)cc1` [Example 96, N-{4-[1-(2,4-Dichloro-phenyl)-1-methyl-ethoxy]-3-fluoro-phenyl}-2-(4-ethanesulfonyl-phenyl)-acetamide], for which the IC50 is under 50 nM, the inhibition at 1 µM came out at 79.3% and the inhibition at 10 µM came to 79.8%.

As for `CCS(=O)(=O)c1ccc(CC(=O)Nc2ccc(OC(C)(C)c3ccc(F)cc3Cl)c(F)c2)cc1` [Example 97, N-{4-[1-(2-Chloro-4-fluoro-phenyl)-1-methyl-ethoxy]-3-fluoro-phenyl}-2-(4-ethanesulfonyl-phenyl)-acetamide], the half-maximal inhibitory concentration (IC50) was under 50 nM, the inhibition at 1 µM is 80.8% and the inhibition at 10 µM was 82.1%.

Take `CCS(=O)(=O)c1ccc(CC(=O)Nc2ccc(OC(C)(C)c3ccc(Cl)cc3F)c(F)c2)cc1` [Example 98, N-{4-[1-(4-Chloro-2-fluoro-phenyl)-1-methyl-ethoxy]-3-fluoro-phenyl}-2-(4-ethanesulfonyl-phenyl)-acetamide]: the inhibition at 1 µM stood at 55% and the inhibition at 10 µM is 49.6%.

`CCS(=O)(=O)c1ccc(CC(=O)Nc2ccc(OC3(c4ccc(Cl)cc4F)CC3)c(F)c2)cc1` [Example 99, N-{4-[1-(4-Chloro-2-fluoro-phenyl)-cyclopropoxy]-3-fluoro-phenyl}-2-(4-ethanesulfonyl-phenyl)-acetamide]: the IC50 is under 50 nM, the inhibition at 1 µM turned out to be 81.7% and the inhibition at 10 µM was determined as 81.1%.

As for `CCS(=O)(=O)c1ccc(CC(=O)Nc2ccc(OC3(c4ccc(Cl)c(F)c4)CC3)c(F)c2)cc1` [Example 100, N-{4-[1-(4-Chloro-3-fluoro-phenyl)-cyclopropoxy]-3-fluoro-phenyl}-2-(4-ethanesulfonyl-phenyl)-acetamide], the IC50 was under 50 nM, the inhibition at 1 µM came out at 79.4% and the inhibition at 10 µM is 87.2%.

Consider `CCS(=O)(=O)c1ccc(CC(=O)Nc2ccc(OC3(c4ccc(Cl)cc4Cl)COC3)c(F)c2)cc1` [Example 101, N-{4-[3-(2,4-Dichloro-phenyl)-oxetan-3-yloxy]-3-fluoro-phenyl}-2-(4-ethanesulfonyl-phenyl)-acetamide], for which the IC50 was under 50 nM, the inhibition at 1 µM worked out at 86.6% and the inhibition at 10 µM turned out to be 82.3%.

With `CCS(=O)(=O)c1ccc(CC(=O)Nc2ccc(OC3(c4ccc(Cl)c(F)c4)COC3)c(F)c2)cc1` [Example 102, N-{4-[3-(4-Chloro-3-fluoro-phenyl)-oxetan-3-yloxy]-3-fluoro-phenyl}-2-(4-ethanesulfonyl-phenyl)-acetamide], the IC50 was under 50 nM, the inhibition at 1 µM was determined as 81.7% and the inhibition at 10 µM is 84%.

Regarding `CCS(=O)(=O)c1ccc(CC(=O)Nc2ccc(OC3(c4ccc(Cl)c(F)c4)CCOCC3)c(F)c2)cc1` [Example 103, N-{4-[4-(4-Chloro-3-fluoro-phenyl)-tetrahydro-pyran-4-yloxy]-3-fluoro-phenyl}-2-(4-ethanesulfonyl-phenyl)-acetamide], the IC50 is under 50 nM, the inhibition at 1 µM is 73.6% and the inhibition at 10 µM amounted to 80.2%.

As to `CCS(=O)(=O)c1ccc(CC(=O)Nc2ccc(OC(C)(C)Cn3ccc4cc(Cl)ccc43)c(F)c2)cc1` [Example 104, N-{4-[2-(5-Chloro-indol-1-yl)-1,1-dimethyl-ethoxy]-3-fluoro-phenyl}-2-(4-ethanesulfonyl-phenyl)-acetamide], the IC50 lay within 50 to 100 nM, the inhibition at 1 µM was determined as 74.5% and the inhibition at 10 µM came to 79.2%.

Regarding `CCn1c(C(C)(C)Oc2ccc(NC(=O)Cc3ccc(S(=O)(=O)CC)cc3)cc2F)nc2cc(Cl)ccc21` [Example 105, N-{4-[1-(5-Chloro-1-ethyl-1H-benzoimidazol-2-yl)-1-methyl-ethoxy]-3-fluoro-phenyl}-2-(4-ethanesulfonyl-phenyl)-acetamide], the IC50 was under 50 nM, the inhibition at 1 µM amounted to 83.6% and the inhibition at 10 µM turned out to be 84.6%.

`CCS(=O)(=O)c1ccc(CC(=O)Nc2ccc(C#CC(C)(C)Oc3ccc(Cl)c(F)c3)c(F)c2)cc1` [Example 106, N-{4-[3-(4-Chloro-3-fluoro-phenoxy)-3-methyl-but-1-ynyl]-3-fluoro-phenyl}-2-(4-ethanesulfonyl-phenyl)-acetamide]: the IC50 is under 50 nM, the inhibition at 1 µM was found to be 81.9% and the inhibition at 10 µM worked out at 85.9%.

`CCS(=O)(=O)c1ccc(CC(=O)Nc2ccc(OC(C)(C)c3ccc(F)cc3F)c(F)c2)cc1` [Example 107, N-{4-[1-(2,4-Difluoro-phenyl)-1-methyl-ethoxy]-3-fluoro-phenyl}-2-(4-ethanesulfonyl-phenyl)-acetamide]: the inhibition at 1 µM is 59% and the inhibition at 10 µM turned out to be 59.5%.

As for `CCS(=O)(=O)c1ccc(CC(=O)Nc2ccc(OC(C)(C)Cn3c(C)cc4cc(F)ccc43)c(F)c2)cc1` [Example 108, 2-(4-Ethanesulfonyl-phenyl)-N-{3-fluoro-4-[2-(5-fluoro-2-methyl-indol-1-yl)-1,1-dimethyl-ethoxy]-phenyl}-acetamide], the inhibition at 1 µM was found to be 9.67% and the inhibition at 10 µM is 61.4%.

With `CCS(=O)(=O)c1ccc(CC(=O)Nc2cc(F)c(OC(C)(C)c3ccc(Cl)cc3Cl)c(F)c2)cc1` [Example 109, N-{4-[1-(2,4-Dichloro-phenyl)-1-methyl-ethoxy]-3,5-difluoro-phenyl}-2-(4-ethanesulfonyl-phenyl)-acetamide], the inhibition at 1 µM amounted to 16.6% and the inhibition at 10 µM worked out at 17.2%.

On to `CCS(=O)(=O)c1ccc(CC(=O)Nc2cc(F)c(OC(C)(C)c3ncc(Cl)cc3Cl)c(F)c2)cc1` [Example 110, N-{4-[1-(3,5-Dichloro-pyridin-2-yl)-1-methyl-ethoxy]-3,5-difluoro-phenyl}-2-(4-ethanesulfonyl-phenyl)-acetamide], for which the inhibition at 1 µM amounted to 23.7% and the inhibition at 10 µM was 47.6%.
